Assay results reported in PubChem BioAssay AID2060512 (Molecular Pharmacology Branch, DTP, NCI, 2025).
pIC50: −log10 of the molar value. Several values for one entry are separate records, joined by “and”; a condition that tells them apart may be missing. Equal entries are not always repeated.

Tested on: 186277-243-T-J2-PDC complex spheroid viability
Assay: Anticancer human tumor 186277-243-T-J2-PDC patient-derived colon adenocarcinoma cell line growth inhibition [GQUAD]
Conditions: for viability, T/C: stronger effect = lower value; active = viability on the fitted dose curve at most 10% of control; inactive = the rest
Excerpt: DNA G-quadruplex Stabilizer Agents in Combinations in Complex Spheroids
A high-throughput screen of multi-cell type tumor spheroids was designed to identify active combinations of DNA G-quadruplex stabilizer agents and targeted small molecules. Complex spheroids include a stromal component modeled by human endothelial cells (HUVEC) and fibroblasts modeled by human mesenchymal stem cells (MSCs). The concentration ranges selected for each drug and investigational agent were based upon clinically achievable concentrations if the clinical Cmax of the agent was known.
Compounds. The drugs and investigational agents: pidnarulex (CX-5461; NSC782164), APTO-253 (NSC789042), BRACO-19 (NSC847499), peposertib (NSC802822), ceralasertib (NSC780249), elimusertib (NSC800525), camonsertib (NSC841442), AZD-1390 (NSC803789), olaparib (NSC753686), talazoparib (NSC767125), ART-558 (NSC835418), sotorasib (NSC818433), MRTX-1133 (NSC836407), SN-38 (NSC673596), topotecan (NSC609699), etoposide (NSC141540), doxorubicin (NSC123127), gemcitabine (NSC613327), 5-fluorouracil (NSC19893), paclitaxel (NSC125973), vemurafenib (NSC761431), panobinostat (NSC761190), R-306465 (JNJ-16241199; NSC773264), adavosertib (NSC754352), TP-3654 (NSC805149), carboplatin (NSC241240), KSQ-4279 (NSC840948), and staurosporine (NSC755774) were obtained from the National Cancer Institute (NCI) Developmental Therapeutics Program Chemical Repository (34). The FDA-approved anticancer drug set is available from the NCI Developmental Therapeutics Program. […] The stock solutions were prepared in dimethyl sulfoxide (DMSO, Sigma-Aldrich, St. Louis, MO, cat. D2650) at 800-fold the tested concentration and stored at -70 degrees C prior to their use. All drugs and investigational agents were tested over a range starting from a high concentration at or near the clinical Cmax and decreasing in half-log increments. If the clinical Cmax for an agent had not been determined, the highest concentration tested was 10 microM.
2.3 Cell Culture. All cells were maintained in an incubator at 37 degrees C and 5% CO2 with 95% humidity. The PDC lines were cultured according to standard operating procedures established by the NCI PDMR. All PDCs were thawed and cultured in Matrigel-coated flasks prepared with a working solution of 1X Ham's F-12 nutrient mix, without supplementation (Invitrogen, cat. 11765054), 100 U/mL penicillin-streptomycin (Invitrogen, cat. 15140122), and 2.5% Matrigel (Corning Inc., cat. 354248) for the first three passages. The 857933-349-R-J2-PDC line was cultured in 6C/Colon 1B media, which includes advanced DMEM/F-12 (Thermo Fisher Scientific, cat. 12634028), 10 mM HEPES (Thermo Fisher Scientific, cat. 15630080), 1X GlutaMAX supplement (Thermo Fisher Scientific, cat. 35050061), 0.1 mg/mL primocin (InvivoGen, cat. ant-pm-2), 10% defined fetal bovine serum, heat inactivated (HyClone Laboratories Inc., cat. SH30070.03HI), 50% L-WRN conditioned media (ATCC, cat. CRL-3276), 1.25 mM N-Acetyl-L-cysteine (Sigma-Aldrich, cat. A9165), 10 mM nicotinamide (Sigma-Aldrich, cat. N0636), 1X B-27 supplement (Thermo Fisher Scientific, cat. 17504044), 1X N-2 supplement (Thermo Fisher Scientific, cat. 17502048), 10 microM Y-27632 dihydrochloride (Tocris Bioscience, cat. 1254), and 50 ng/mL human EGF recombinant protein (Thermo Fisher Scientific, cat. PHG0311). The 485176-168-R4-J1-PDC line was cultured in Panc media, which includes all 6C/Colon 1B media components plus 100 ng/mL human FGF-10 (Thermo Fisher Scientific, cat. 100-26), 500 nM SB-431542 (Selleckchem, cat. S1067), and gastrin (Tocris, cat. 3006).
[…]

[1] = curve of first compound, second compound 0.0316 µM
[2] = curve of first compound, second compound 0.1 µM
[3] = curve of first compound, second compound 0.316 µM
[4] = curve of first compound, second compound 1 µM
[5] = curve of first compound, second compound 3.16 µM
[6] = curve of first compound, second compound 10 µM
[7] = second compound 0.0316 µM, first compound 0.0316 µM
[8] = second compound 0.0316 µM, first compound 0.1 µM
[9] = second compound 0.0316 µM, first compound 0.316 µM
[10] = second compound 0.0316 µM, first compound 1 µM
[11] = second compound 0.0316 µM, first compound 3.16 µM
[12] = second compound 0.0316 µM, first compound 10 µM
[13] = second compound 0.1 µM, first compound 0.0316 µM
[14] = second compound 0.1 µM, first compound 0.1 µM
[15] = second compound 0.1 µM, first compound 0.316 µM
[16] = second compound 0.1 µM, first compound 1 µM
[17] = second compound 0.1 µM, first compound 3.16 µM
[18] = second compound 0.1 µM, first compound 10 µM
[19] = second compound 0.316 µM, first compound 0.0316 µM
[20] = second compound 0.316 µM, first compound 0.1 µM
[21] = second compound 0.316 µM, first compound 0.316 µM
[22] = second compound 0.316 µM, first compound 1 µM
[23] = second compound 0.316 µM, first compound 3.16 µM
[24] = second compound 0.316 µM, first compound 10 µM
[25] = second compound 1 µM, first compound 0.0316 µM
[26] = second compound 1 µM, first compound 0.1 µM
[27] = second compound 1 µM, first compound 0.316 µM
[28] = second compound 1 µM, first compound 1 µM
[29] = second compound 1 µM, first compound 3.16 µM
[30] = second compound 1 µM, first compound 10 µM
[31] = second compound 3.16 µM, first compound 0.0316 µM
[32] = second compound 3.16 µM, first compound 0.1 µM
[33] = second compound 3.16 µM, first compound 0.316 µM
[34] = second compound 3.16 µM, first compound 1 µM
[35] = second compound 3.16 µM, first compound 3.16 µM
[36] = second compound 3.16 µM, first compound 10 µM
[37] = second compound 10 µM, first compound 0.0316 µM
[38] = second compound 10 µM, first compound 0.1 µM
[39] = second compound 10 µM, first compound 0.316 µM
[40] = second compound 10 µM, first compound 1 µM
[41] = second compound 10 µM, first compound 3.16 µM
[42] = second compound 10 µM, first compound 10 µM
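Note: spheroids exposed to drugs for 7 days.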

CC(C)n1c(=O)n(C)c2cnc3cc(F)c(-c4ccc(OCCCN5CCCCC5)nc4)cc3c21
< 5.00: pIC50 (curve of compound)
inactive: viability, T/C (compound 0.0316 µM) 99.3% and 98.7% and 80.8% | viability, T/C (compound 0.1 µM) 90.1% and 89.8% and 84.8% | viability, T/C (compound 0.316 µM) 106% and 104% and 82.1% | viability, T/C (compound 1 µM) 96.6% and 119% and 84.2% | viability, T/C (compound 3.16 µM) 104% and 106% and 97.2% | viability, T/C (compound 10 µM) 89.4% and 101% and 76%

O=C(c1cc(Cc2n[nH]c(=O)c3ccccc23)ccc1F)N1CCN(C(=O)C2CC2)CC1 + Cc1[nH]c2ccc(F)cc2c1-c1nc2c3cccnc3c3ncccc3c2[nH]1
inactive: viability, T/C [7] 110% | viability, T/C [8] 91.6% | viability, T/C [9] 103% | viability, T/C [10] 90.9% | viability, T/C [11] 98.8% | viability, T/C [12] 54.9% | viability, T/C [13] 93.2% | viability, T/C [14] 106% | viability, T/C [15] 97% | viability, T/C [16] 100% | viability, T/C [17] 82.3% | viability, T/C [18] 66.2% | viability, T/C [19] 98.1% | viability, T/C [20] 94.5% | viability, T/C [21] 91.3% | viability, T/C [22] 92.6% | viability, T/C [23] 89.9% | viability, T/C [24] 53.8% | viability, T/C [25] 79.3% | viability, T/C [26] 99.4% | viability, T/C [27] 97.4% | viability, T/C [28] 86% | viability, T/C [29] 89.2% | viability, T/C [30] 62.1% | viability, T/C [31] 99% | viability, T/C [32] 101% | viability, T/C [33] 113% | viability, T/C [34] 105% | viability, T/C [35] 93.1% | viability, T/C [36] 68.3% | viability, T/C [37] 89% | viability, T/C [38] 102% | viability, T/C [39] 114% | viability, T/C [40] 87.6% | viability, T/C [41] 86.5% | viability, T/C [42] 59.2%
< 5.00: pIC50 [1] | pIC50 [2] | pIC50 [3] | pIC50 [4] | pIC50 [5] | pIC50 [6]

O=C(NO)c1cnc(N2CCN(S(=O)(=O)c3ccc4ccccc4c3)CC2)nc1 + CN(C)c1ccc(Nc2c3ccc(NC(=O)CCN4CCCC4)cc3nc3cc(NC(=O)CCN4CCCC4)ccc23)cc1
6.77: pIC50 [1]
6.74: pIC50 [3] | pIC50 [5] | pIC50 [6]
inactive: viability, T/C [7] 103% | viability, T/C [8] 87% | viability, T/C [13] 90.1% | viability, T/C [14] 91.3% | viability, T/C [19] 105% | viability, T/C [20] 94.8% | viability, T/C [25] 92.1% | viability, T/C [26] 90.8% | viability, T/C [31] 104% | viability, T/C [32] 94.2% | viability, T/C [37] 92.5% | viability, T/C [38] 101%
active: viability, T/C [9] 7.72% | viability, T/C [10] 0.27% | viability, T/C [11] 0.26% | viability, T/C [12] 0.18% | viability, T/C [15] 7.71% | viability, T/C [16] 0.23% | viability, T/C [17] 0.14% | viability, T/C [18] 0.15% | viability, T/C [21] 8.34% | viability, T/C [22] 0.23% | viability, T/C [23] 0.12% | viability, T/C [24] 0.13% | viability, T/C [27] 7.85% | viability, T/C [28] 0.24% | viability, T/C [29] 0.13% | viability, T/C [30] 0.13% | viability, T/C [33] 9.96% | viability, T/C [34] 0.26% | viability, T/C [35] 0.16% | viability, T/C [36] 0.15% | viability, T/C [39] 7.98% | viability, T/C [40] 0.3% | viability, T/C [41] 0.21% | viability, T/C [42] 0.19%
6.75: pIC50 [2] | pIC50 [4]
